We go through 23 molecules from US20100160369A1, “S1P1 Agonists and Methods of Making And Using” (EXELIXIS, INC., priority 2008, published 2010).

pEC50: −log10 of the molar value. Where a name gives a salt, the structure may show the parent alone. Read-outs that look alike come from different tables or passages of the source.

The assay concerns the target S1P1 (Homo sapiens, UniProt P21453). The assay can be described thus: Tango β-arrestin Recruitment Assay in U2OS cells (Assay 2b). The format is cell-based. Also noted: linker with TEV protease (N1a) cleavage site (C). The following applies: Tango β-arrestin Recruitment Assay. An excerpt: For the Tango™ β-arrestin recruitment assay, the cytoplasmic C-terminus of S1P1 is tethered to the tTA transcriptional activator with a linker that contains a cleavage site for the N1a protease from tobacco etch virus (TEV protease). The C-terminus of the human β-arrestin2 protein is fused to TEV protease. Binding of an agonist recruits the β-arrestin-TEV fusion protein to the receptor resulting in cleavage of the linker and release of tTA to enter the nucleus and subsequently activate a tTA-dependent luciferase reporter gene.
Alternatively, U2OS cells expressing the reporter gene and S1P1 (Invitrogen) were added to the wells of a 384-well white opaque bottom assay plate (PerkinElmer) at […] per well. The cells were serum starved for 48 h in Freestyle medium (Invitrogen). Test compounds were tested at maximum concentrations of 1 μM for the agonist assay. Compounds were diluted in DMSO (10 concentration points, 3-fold each) and added to the assay plate at a 1% final DMSO concentration. The efficacy control was 1 μM S1P (Avanti). For each compound, there were duplicate assay plates and each assay plate had duplicate wells per concentration point. The plate was incubated overnight at 37° C. The GeneBLAzer β-lactamase assay reagent (Invitrogen) was added and the plates were incubated for an additional 2 h at room temperature. Fluorescence was measured using an EnVision plate reader (PerkinElmer, Waltham, Mass.) at an excitation wavelength of 409 nm and emission wavelengths of 460 nm and 530 nm. The emission intensity at each wavelength was background subtracted against wells containing medium only and the F460 nm/F530 nm ratio determined for each concentration of the test compounds. Percent activity was calculated as [(test compound ratio−DMSO ratio)/(positive control ratio−DMSO ratio)*100], where the positive control and DMSO ratios are from cells incubated with the efficacy control 1 μM S1P and 1% DMSO, respectively. The percent activities were plotted against compound concentration to determine EC50 using XLFit (IDBS).
Assay 1 is the CNG cAMP Assay as described in Biological Example 1. Assay 2a and 2b are the Tango™ β-arrestin Recruitment Assay in HEK293 and U2OS cells, respectively, as described in Biological Example 2. Assay 3a is the hS1P1R GTPγS Binding Assay as described in Biological Example 3. Assay 3b is the GTP-Eu Binding Assay as described in Biological Example 3. EC50's were measured unless otherwise noted. […] In the table, “nt” means the Compound was not tested and “no” means the compound was tested but had no measurable activity under the assay conditions employed.
On the technique in general: Arrestin recruitment assays detect the binding of arrestin to an activated receptor.

[1] abbreviates: footnote 1: Relative EC50 was measured, read-out: Assay 2b relative EC50.

The term pEC50 denotes the negative decadic logarithm of the EC50, by convention in mol/L.

Chain of S1P1 (P21453 whole entry, the tested form may be a part): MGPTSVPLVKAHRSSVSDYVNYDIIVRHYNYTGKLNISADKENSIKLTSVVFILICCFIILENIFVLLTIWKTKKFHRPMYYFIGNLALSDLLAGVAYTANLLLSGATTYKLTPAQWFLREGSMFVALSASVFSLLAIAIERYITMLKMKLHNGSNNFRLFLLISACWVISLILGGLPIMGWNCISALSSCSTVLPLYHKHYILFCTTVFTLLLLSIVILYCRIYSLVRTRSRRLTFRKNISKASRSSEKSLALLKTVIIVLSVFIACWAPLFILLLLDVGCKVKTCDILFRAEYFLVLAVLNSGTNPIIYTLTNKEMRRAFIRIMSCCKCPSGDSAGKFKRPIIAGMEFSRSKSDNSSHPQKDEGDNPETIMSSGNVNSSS
Chain of S1P1 (P32121 whole entry partner, the tested form may be a part): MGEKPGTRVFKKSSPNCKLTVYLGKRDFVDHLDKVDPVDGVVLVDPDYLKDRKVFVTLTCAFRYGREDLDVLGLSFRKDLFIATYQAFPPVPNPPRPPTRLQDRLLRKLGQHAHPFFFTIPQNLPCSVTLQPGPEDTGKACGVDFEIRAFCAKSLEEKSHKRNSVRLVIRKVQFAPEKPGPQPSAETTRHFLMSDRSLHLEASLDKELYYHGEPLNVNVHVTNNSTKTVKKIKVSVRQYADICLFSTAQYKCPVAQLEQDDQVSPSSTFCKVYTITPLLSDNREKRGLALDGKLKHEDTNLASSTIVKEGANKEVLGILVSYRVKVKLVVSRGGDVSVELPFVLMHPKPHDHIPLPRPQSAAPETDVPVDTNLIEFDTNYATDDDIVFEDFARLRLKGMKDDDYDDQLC

On to `O=C(O)C1CC1c1cc(Cl)c(-c2nc(-c3cn4cc(C(F)(F)F)cc(Cl)c4n3)no2)cc1Cl` (centres unmarked) [Example 299, 2-(2,5-dichloro-4-{3-[8-chloro-6-(trifluoromethyl)imidazo[1,2-a]pyridin-2-yl]-1,2,4-oxadiazol-5-yl}phenyl)cyclopropanecarboxylic acid], for which the pEC50 (read-out: Assay 2b EC50) is 6.30 to 7.00.
Still for that read-out and setting: the value for `CC1(C)OC[C@@H](COc2cc(Cl)c(-c3noc(-c4cn5cc(C(F)(F)F)cc(Cl)c5n4)n3)cc2Cl)O1` [Example 304, 8-chloro-2-{3-[2,5-dichloro-4-({[(4R)-2,2-dimethyl-1,3-dioxolan-4-yl]methyl}oxy)phenyl]-1,2,4-oxadiazol-5-yl}-6-(trifluoromethyl)imidazo[1,2-a]pyridine] was at least 7.00.
Still for that read-out and setting: the value for `CC(=O)COc1cc(Cl)c(-c2noc(-c3cn4cc(C(F)(F)F)cc(Br)c4n3)n2)cc1Cl` [Example 305, 1-[(4-{5-[8-bromo-6-(trifluoromethyl)imidazo[1,2-a]pyridin-2-yl]-1,2,4-oxadiazol-3-yl}-2,5-dichlorophenyl)oxy]propan-2-one] was at least 7.00; that for `O=C(O)C1CC1c1cc(Cl)c(-c2noc(-c3cn4cc(C(F)(F)F)cc(Br)c4n3)n2)cc1Cl` (centres unmarked) [Example 306, 2-(4-{5-[8-bromo-6-(trifluoromethyl)imidazo[1,2-a]pyridin-2-yl]-1,2,4-oxadiazol-3-yl}-2,5-dichlorophenyl)cyclopropanecarboxylic acid] was at least 7.00; that for `OCC(CO)Oc1cc(Cl)c(-c2noc(-c3cn4cc(C(F)(F)F)cc(Cl)c4n3)n2)cc1Cl` [Example 307, 2-[(2,5-dichloro-4-{5-[8-chloro-6-(trifluoromethyl)imidazo[1,2-a]pyridin-2-yl]-1,2,4-oxadiazol-3-yl}phenyl)oxy]propane-1,3-diol] was at least 7.00.
Consider `OCCNc1cc(Cl)c(-c2noc(-c3cn4cc(C(F)(F)F)cc(Cl)c4n3)n2)cc1F` [Example 308, 2-[(5-chloro-4-{5-[8-chloro-6-(trifluoromethyl)imidazo[1,2-a]pyridin-2-yl]-1,2,4-oxadiazol-3-yl}-2-fluorophenyl)amino]ethanol], for which the pEC50 (read-out: Assay 2b EC50) is at least 7.00.
Same read-out and setting: with `N[C@@H](CO)COc1cc(Cl)c(-c2nnc(-c3cn4cc(C(F)(F)F)ccc4n3)s2)cc1F` [Example 309, (2S)-2-amino-3-[(5-chloro-2-fluoro-4-{5-[6-(trifluoromethyl)imidazo[1,2-a]pyridin-2-yl]-1,3,4-thiadiazol-2-yl}phenyl)oxy]propan-1-ol] the figure was at least 7.00.
With `COc1ccc2nc(-c3nnc(-c4cc(F)c(OC[C@@H](N)CO)cc4Cl)s3)cn2c1` [Example 310, (2S)-2-amino-3-[(5-chloro-2-fluoro-4-{5-[6-(methyloxy)imidazo[1,2-a]pyridin-2-yl]-1,3,4-thiadiazol-2-yl}phenyl)oxy]propan-1-ol], for the setting “read-out: Assay 2b EC50”, the negative logarithm of the EC50 (pEC50) is at least 7.00.
With `OCC(F)(F)COc1cc(Cl)c(-c2noc(-c3cn4cc(C(F)(F)F)cc(Cl)c4n3)n2)cc1Cl` [Example 311, 3-[(2,5-dichloro-4-{5-[8-chloro-6-(trifluoromethyl)imidazo[1,2-a]pyridin-2-yl]-1,2,4-oxadiazol-3-yl}phenyl)oxy]-2,2-difluoropropan-1-ol], for the setting “read-out: Assay 2b EC50”, the pEC50 was at least 7.00.
On to `CC(O)COc1cc(Cl)c(-c2noc(-c3cn4cc(C(F)(F)F)cc(Br)c4n3)n2)cc1Cl` (centres unmarked) [Example 316, 1-[(4-{5-[8-bromo-6-(trifluoromethyl)imidazo[1,2-a]pyridin-2-yl]-1,2,4-oxadiazol-3-yl}-2,5-dichlorophenyl)oxy]propan-2-ol], for which the pEC50 (read-out: Assay 2b EC50) was at least 7.00.
Take `COCC(O)COc1cc(Cl)c(-c2noc(-c3cn4cc(C(F)(F)F)cc(Cl)c4n3)n2)cc1Cl` (centres unmarked) [Example 318, 1-[(2,5-dichloro-4-{5-[8-chloro-6-(trifluoromethyl)imidazo[1,2-a]pyridin-2-yl]-1,2,4-oxadiazol-3-yl}phenyl)oxy]-3-(methyloxy)propan-2-ol]: where the note is “read-out: Assay 2b EC50”, the negative logarithm of the EC50 (pEC50) is at least 7.00.
Turning to `COC(=O)C(C)(O)COc1cc(Cl)c(-c2noc(-c3cn4cc(C(F)(F)F)cc(Cl)c4n3)n2)cc1Cl` (centres unmarked) [Example 319, methyl 3-[(2,5-dichloro-4-{5-[8-chloro-6-(trifluoromethyl)imidazo[1,2-a]pyridin-2-yl]-1,2,4-oxadiazol-3-yl}phenyl)oxy]-2-hydroxy-2-methylpropanoate], the pEC50 under setting [1] is 6.30 to 7.00.
As to `O=C(O)C1CC1c1cc(Cl)c(-c2nnc(-c3cn4cc(C(F)(F)F)cc(Cl)c4n3)s2)cc1Cl` (centres unmarked) [Example 320, 2-(2,5-dichloro-4-{5-[8-chloro-6-(trifluoromethyl)imidazo[1,2-a]pyridin-2-yl]-1,3,4-thiadiazol-2-yl}phenyl)cyclopropanecarboxylic acid], the pEC50 (read-out: Assay 2b EC50) is at least 7.00.
For `CC(O)CNc1cc(Cl)c(-c2noc(-c3cn4cc(C(F)(F)F)cc(Cl)c4n3)n2)cc1Cl` (centres unmarked) [Example 323, 1-[(2,5-dichloro-4-{5-[8-chloro-6-(trifluoromethyl)imidazo[1,2-a]pyridin-2-yl]-1,2,4-oxadiazol-3-yl}phenyl)amino]propan-2-ol], where the note is “read-out: Assay 2b EC50”, the negative-log EC50 (pEC50) is at least 7.00.
Still for that read-out and setting: the value for `C[C@@H](COc1cc(Cl)c(-c2noc(-c3cn4cc(C(F)(F)F)cc(Br)c4n3)n2)cc1Cl)OP(=O)(O)O` [Example 325, (1S)-2-[(4-{5-[8-bromo-6-(trifluoromethyl)imidazo[1,2-a]pyridin-2-yl]-1,2,4-oxadiazol-3-yl}-2,5-dichlorophenyl)oxy]-1-methylethyl dihydrogen phosphate] was at least 7.00; that for `CC(O)(COc1cc(Cl)c(-c2noc(-c3cn4cc(C(F)(F)F)cc(Cl)c4n3)n2)cc1Cl)C(=O)O` (centres unmarked) [Example 327, 3-[(2,5-dichloro-4-{5-[8-chloro-6-(trifluoromethyl)imidazo[1,2-a]pyridin-2-yl]-1,2,4-oxadiazol-3-yl}phenyl)oxy]-2-hydroxy-2-methylpropanoic acid] was at least 7.00.
Take `C[C@H](COc1cc(Cl)c(-c2noc(-c3cn4cc(C(F)(F)F)cc(Cl)c4n3)n2)cc1Cl)OP(=O)(O)O` [Example 328, (1R)-2-[(2,5-dichloro-4-{5-[8-chloro-6-(trifluoromethyl)imidazo[1,2-a]pyridin-2-yl]-1,2,4-oxadiazol-3-yl}phenyl)oxy]-1-methylethyl dihydrogen phosphate]: the pEC50 (read-out: Assay 2b EC50) was at least 7.00.
For the molecule `Cc1cc(CCC(=O)O)c(Cl)cc1-c1nc(-c2cn3cc(C(F)(F)F)cc(Cl)c3n2)no1` [Example 329, 3-(2-chloro-4-{3-[8-chloro-6-(trifluoromethyl)imidazo[1,2-a]pyridin-2-yl]-1,2,4-oxadiazol-5-yl}-5-methylphenyl)propanoic acid], the pEC50 (read-out: Assay 2b EC50) was at least 7.00.
In the case of `C[C@H](COc1cc(Cl)c(-c2noc(-c3cn4cc(C(F)(F)F)cc(Cl)c4n3)n2)cc1Cl)OS(=O)(=O)O` [Example 331, (1R)-2-[(2,5-dichloro-4-{5-[8-chloro-6-(trifluoromethyl)imidazo[1,2-a]pyridin-2-yl]-1,2,4-oxadiazol-3-yl}phenyl)oxy]-1-methylethyl hydrogen sulfate], the pEC50 (read-out: Assay 2b EC50) was at least 7.00.
For the molecule `CS(=O)(=O)NCc1ccc(-c2nnc(-c3cn4cc(C(F)(F)F)cc(Cl)c4n3)s2)c(Cl)c1` [Example 332, N-[(3-chloro-4-{5-[8-chloro-6-(trifluoromethyl)imidazo[1,2-a]pyridin-2-yl]-1,3,4-thiadiazol-2-yl}phenyl)methyl]methanesulfonamide], where the note is “read-out: Assay 2b EC50”, the pEC50 was at least 7.00.
`CS(=O)(=O)CCOc1cc(Cl)c(-c2noc(-c3cn4cc(C(F)(F)F)cc(Cl)c4n3)n2)cc1Cl` [Example 333, 8-chloro-2-[3-(2,5-dichloro-4-{[2-(methylsulfonyl)ethyl]oxy}phenyl)-1,2,4-oxadiazol-5-yl]-6-(trifluoromethyl)imidazo[1,2-a]pyridine]: under setting [1], the pEC50 was 6.30 to 7.00.
As to `N[C@@H](CO)COc1cc(Cl)c(-c2nnc(-c3cn4cc(C(F)(F)F)cc(Cl)c4n3)s2)cc1F` [Example 335, (2S)-2-Amino-3-[(5-chloro-4-{5-[8-chloro-6-(trifluoromethyl)imidazo[1,2-a]pyridin-2-yl]-1,3,4-thiadiazol-2-yl}-2-fluorophenyl)oxy]propan-1-ol], the negative-log EC50 (pEC50) (read-out: Assay 2b EC50) was at least 7.00.
Consider `NCC(O)COc1cc(Cl)c(-c2nnc(-c3cn4cc(C(F)(F)F)cc(Cl)c4n3)s2)cc1Cl` (centres unmarked) [Example 336, 1-amino-3-[(2,5-dichloro-4-{5-[8-chloro-6-(trifluoromethyl)imidazo[1,2-a]pyridin-2-yl]-1,3,4-thiadiazol-2-yl}phenyl)oxy]propan-2-ol], for which the negative logarithm of the EC50 (pEC50) (read-out: Assay 2b EC50) is at least 7.00.
